The supplement of paper PMC10307832

These cell lines were tested with CN1CCN(CC1)C2=CC(=C(C=C2)NC3=NC(=C(S3)C(=O)C4=C(C=CC=C4Cl)Cl)N)OC [XMD14-99] + NC(=O)Nc1cc(-c2cccc(F)c2)sc1C(=O)N[C@H]1CCCNC1 [AZD7762] (partner 0.2 µM) (assay: relative viability (nuclei count vs DMSO), 5 days (fraction); higher = more cells survive). Conditions: first compound 8 µM.
In short: (§1)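 Lung cancer cell lines were seeded in 1536-well plates and dosed by pin tool the next day, with either a single drug or a fixed anchor-drug dose combined with five library-drug doses (not always all listed) spaced in √10 steps. Five days later, one step fixed the cells and stained their nuclei (final 0.05% Triton X-100, 1% formaldehyde, 1 ug/ml Hoechst), and nuclei were counted on 4× images. Relative viability is the nuclei count in treated wells divided by the count in vehicle wells, and each value is the median of duplicate plates.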

Going from NCI-H1793 to PC-3 [JPC-3], the relative viability rises from 0.298 to 0.553.

Compared with EKVX, LC-2-ad is higher in relative viability: 0.522 for the first, 0.735 for the second.

Going from NCI-H1944 to NCI-H1975, the relative viability rises from 0.328 to 0.569.

First: ABC-1
Second: NCI-H358
The relative viability of the first is higher: 0.762 for the first, 0.455 for the second.

RERF-LC-KJ showed a relative viability of 0.794.

What follows are cell lines tested with CN1CCN(CC1)C2=CC(=C(C=C2)NC3=NC(=C(S3)C(=O)C4=C(C=CC=C4Cl)Cl)N)OC [XMD14-99] + Cc1cc(Nc2cc(N3CCN(C)CC3)nc(Sc3ccc(NC(=O)C4CC4)cc3)n2)n[nH]1 [Tozasertib] (partner 0.1 µM) in the same assay as above. Conditions: first compound 0.08 µM.
In short: as §1

First: HCC-78
Second: NCI-H441
The relative viability of the first is lower: 0.407 for the first, 0.693 for the second.

Compared with LCLC-97TM1, A-427 is lower in relative viability: 0.401 for the first, 0.224 for the second.

First: NCI-H460
Second: NCI-H727
The relative viability of the first is lower: 0.408 for the first, 0.661 for the second.

Compared with NCI-H1734, NCI-H2405 is higher in relative viability: 0.288 for the first, 0.758 for the second.

First: NCI-H1395
Second: 201T
The relative viability of the first is lower: 0.689 for the first, 0.899 for the second.

Going from NCI-H1915 to HCC-827, the relative viability falls from 0.423 to 0.393.

Going from LXF-289 to NCI-H2347, the relative viability rises from 0.183 to 0.555.

Going from NCI-H650 to CAL-12T, the relative viability falls from 0.747 to 0.331.

Going from NCI-H1651 to EPLC-272H, the relative viability falls from 0.767 to 0.348.

Going from NCI-H23 to NCI-H1355, the relative viability rises from 0.453 to 0.54.

Compared with NCI-H322M, NCI-H1437 is lower in relative viability: 0.501 for the first, 0.426 for the second.

Going from NCI-H1755 to NCI-H2085, the relative viability rises from 0.519 to 0.752.

First: HCC-15
Second: NCI-H1793
The relative viability of the first is higher: 0.421 for the first, 0.329 for the second.

Going from PC-3 [JPC-3] to EKVX, the relative viability falls from 0.889 to 0.368.

Compared with LC-2-ad, NCI-H1944 is lower in relative viability: 0.399 for the first, 0.226 for the second.

Compared with NCI-H1975, ABC-1 is lower in relative viability: 0.693 for the first, 0.185 for the second.

Compared with NCI-H358, RERF-LC-KJ is higher in relative viability: 0.0889 for the first, 0.507 for the second.

Same assay, conditions: first compound 0.8 µM

First: HCC-78
Second: NCI-H441
The relative viability of the first is lower: 0.335 for the first, 0.599 for the second.

First: LCLC-97TM1
Second: A-427
The relative viability of the first is higher: 0.238 for the first, 0.227 for the second.

First: NCI-H460
Second: NCI-H727
The relative viability of the first is lower: 0.376 for the first, 0.558 for the second.

Going from NCI-H1734 to NCI-H2405, the relative viability rises from 0.244 to 0.713.

First: NCI-H1395
Second: 201T
The relative viability of the first is lower: 0.79 for the first, 0.915 for the second.

First: NCI-H1915
Second: HCC-827
The relative viability of the first is higher: 0.42 for the first, 0.394 for the second.

Going from LXF-289 to NCI-H2347, the relative viability rises from 0.205 to 0.641.

Compared with NCI-H650, CAL-12T is lower in relative viability: 0.688 for the first, 0.331 for the second.

Going from NCI-H1651 to EPLC-272H, the relative viability falls from 0.645 to 0.307.

Going from NCI-H23 to NCI-H1355, the relative viability rises from 0.352 to 0.519.

Going from NCI-H322M to NCI-H1437, the relative viability falls from 0.488 to 0.336.

Compared with NCI-H1755, NCI-H2085 is higher in relative viability: 0.531 for the first, 0.779 for the second.

Going from HCC-15 to NCI-H1793, the relative viability rises from 0.31 to 0.377.

First: PC-3 [JPC-3]
Second: EKVX
The relative viability of the first is higher: 0.828 for the first, 0.378 for the second.

Going from LC-2-ad to NCI-H1944, the relative viability falls from 0.481 to 0.256.

First: NCI-H1975
Second: ABC-1
The relative viability of the first is higher: 0.733 for the first, 0.177 for the second.

Compared with NCI-H358, RERF-LC-KJ is higher in relative viability: 0.102 for the first, 0.464 for the second.

Same assay, conditions: first compound 2.53 µM

Compared with HCC-78, NCI-H441 is higher in relative viability: 0.398 for the first, 0.554 for the second.

Going from LCLC-97TM1 to A-427, the relative viability falls from 0.202 to 0.201.

Going from NCI-H460 to NCI-H727, the relative viability rises from 0.45 to 0.532.

Going from NCI-H1734 to NCI-H2405, the relative viability rises from 0.248 to 0.701.

Going from NCI-H1395 to 201T, the relative viability rises from 0.537 to 0.886.

Compared with NCI-H1915, HCC-827 is lower in relative viability: 0.428 for the first, 0.342 for the second.

Compared with LXF-289, NCI-H2347 is higher in relative viability: 0.196 for the first, 0.442 for the second.

First: NCI-H650
Second: CAL-12T
The relative viability of the first is higher: 0.667 for the first, 0.307 for the second.

Going from NCI-H1651 to EPLC-272H, the relative viability falls from 0.657 to 0.264.

First: NCI-H23
Second: NCI-H1355
The relative viability of the first is lower: 0.279 for the first, 0.408 for the second.

Going from NCI-H322M to NCI-H1437, the relative viability falls from 0.558 to 0.321.

Compared with NCI-H1755, NCI-H2085 is higher in relative viability: 0.478 for the first, 0.716 for the second.

Going from HCC-15 to NCI-H1793, the relative viability rises from 0.322 to 0.34.

Compared with PC-3 [JPC-3], EKVX is lower in relative viability: 0.789 for the first, 0.392 for the second.

Going from LC-2-ad to NCI-H1944, the relative viability falls from 0.484 to 0.255.

First: NCI-H1975
Second: ABC-1
The relative viability of the first is higher: 0.656 for the first, 0.235 for the second.

Going from NCI-H358 to RERF-LC-KJ, the relative viability rises from 0.0882 to 0.408.

Same assay, conditions: first compound 8 µM

Going from HCC-78 to NCI-H441, the relative viability rises from 0.347 to 0.354.

Compared with LCLC-97TM1, A-427 is lower in relative viability: 0.211 for the first, 0.188 for the second.

Compared with NCI-H460, NCI-H727 is higher in relative viability: 0.188 for the first, 0.342 for the second.

Compared with NCI-H1734, NCI-H2405 is higher in relative viability: 0.227 for the first, 0.501 for the second.

Compared with NCI-H1395, 201T is higher in relative viability: 0.651 for the first, 0.669 for the second.

First: NCI-H1915
Second: HCC-827
The relative viability of the first is lower: 0.386 for the first, 0.404 for the second.

Compared with LXF-289, NCI-H2347 is higher in relative viability: 0.171 for the first, 0.405 for the second.

Compared with NCI-H650, CAL-12T is lower in relative viability: 0.581 for the first, 0.3 for the second.

Compared with NCI-H1651, EPLC-272H is lower in relative viability: 0.556 for the first, 0.324 for the second.

Compared with NCI-H23, NCI-H1355 is higher in relative viability: 0.263 for the first, 0.324 for the second.

First: NCI-H322M
Second: NCI-H1437
The relative viability of the first is higher: 0.414 for the first, 0.219 for the second.

Going from NCI-H1755 to NCI-H2085, the relative viability falls from 0.512 to 0.464.

Compared with HCC-15, NCI-H1793 is higher in relative viability: 0.199 for the first, 0.28 for the second.

Going from PC-3 [JPC-3] to EKVX, the relative viability falls from 0.705 to 0.343.

First: LC-2-ad
Second: NCI-H1944
The relative viability of the first is higher: 0.418 for the first, 0.235 for the second.

Compared with NCI-H1975, ABC-1 is lower in relative viability: 0.281 for the first, 0.217 for the second.

First: NCI-H358
Second: RERF-LC-KJ
The relative viability of the first is lower: 0.0609 for the first, 0.374 for the second.
